Reference: ChEMBL document CHEMBL3297720, “Synthesis and evaluation of N-alkyl-9-aminoacridines with antibacterial activity” (2014)
≈ marks a conversion by molar mass, not a printed value. Calls of active or inactive are those of the source. The calls are words filed in the database; no cut-off is given here.

What was measured:
Staphylococcus aureus [1] = experiment: Antibacterial activity against methicillin-sensitive Staphylococcus aureus […] 8545 after 16 to 20 hrs by broth microdilution assay; assay type: functional
Staphylococcus aureus [2] = experiment: Antibacterial activity against methicillin-resistant Staphylococcus aureus IDRL 6169 after 16 to 20 hrs by broth microdilution assay; assay type: functional
Staphylococcus aureus [3] = experiment: Antibacterial activity against methicillin-resistant Staphylococcus aureus ATCC 43300 after 16 to 20 hrs by broth microdilution assay; assay type: functional
Nucleic Acid = experiment: Binding affinity to relaxed plasmid DNA (unknown origin) assessed as DNA intercalation at 4 to 100 uM after 10 mins by gel electrophoresis in presence of human topoisomerase 1; assay type: nucleic-acid assay

Compound	MIC99 (Staphylococcus aureus [1]) [µM]	MIC99 (Staphylococcus aureus [2]) [µM]	MIC99 (Staphylococcus aureus [3]) [µM]	Activity (Nucleic Acid)
CCCCCCCCNc1c2ccccc2nc2cc(C(=O)N3CCN(C)CC3)ccc12	> 100	> 100	> 100	–
CCCCCNc1c2ccccc2nc2cc(C(=O)N3CCN(C)CC3)ccc12	> 100	> 100	> 100	–
CCCCCCCNc1c2ccccc2nc2cc(C(=O)N3CCN(C)CC3)ccc12	> 100	> 100	> 100	–
CCCCCCCCCCCNc1c2ccccc2nc2ccccc12	3.81 (≈ 1.33 µg/mL)	2.73 (≈ 0.951 µg/mL)	2.01 (≈ 0.701 µg/mL)	–
CCCCCCCCNc1c2ccccc2nc2ccccc12	10.3 (≈ 3.14 µg/mL)	10.8 (≈ 3.31 µg/mL)	8.54 (≈ 2.62 µg/mL)	–
CCCCCCCCCCCCCNc1c2ccccc2nc2cc(C(=O)N3CCN(C)CC3)ccc12	3.57 (≈ 1.79 µg/mL)	3.07 (≈ 1.54 µg/mL)	2.91 (≈ 1.46 µg/mL)	–
CCCNc1c2ccccc2nc2cc(C(=O)N3CCN(C)CC3)ccc12	> 100	> 100	> 100	Active
CCCCCCCCCCCNc1c2ccccc2nc2cc(C(=O)N3CCN(C)CC3)ccc12	6.23 (≈ 2.96 µg/mL)	6.14 (≈ 2.91 µg/mL)	3.61 (≈ 1.71 µg/mL)	–
CCCCCCCCCCCCCCNc1c2ccccc2nc2ccccc12	2.98 (≈ 1.16 µg/mL)	2.15 (≈ 0.84 µg/mL)	3.07 (≈ 1.2 µg/mL)	–
CCCCCCCCCCCCCCCCNc1c2ccccc2nc2ccccc12	26.2 (≈ 11 µg/mL)	10.1 (≈ 4.25 µg/mL)	24.7 (≈ 10.3 µg/mL)	–
CCCCCCCCCCCCCCCNc1c2ccccc2nc2cc(C(=O)N3CCN(C)CC3)ccc12	5.91 (≈ 3.14 µg/mL)	8.59 (≈ 4.56 µg/mL)	4.59 (≈ 2.44 µg/mL)	–
CCCCCCCCCNc1c2ccccc2nc2ccccc12	5.95 (≈ 1.91 µg/mL)	3.59 (≈ 1.15 µg/mL)	3.19 (≈ 1.02 µg/mL)	–
CCCCCCCCCCCCCCNc1c2ccccc2nc2cc(C(=O)N3CCN(C)CC3)ccc12	6.25 (≈ 3.23 µg/mL)	6.13 (≈ 3.17 µg/mL)	5.82 (≈ 3.01 µg/mL)	–
CCCNc1c2ccccc2nc2ccccc12	> 100	> 100	> 100	Active
CCCCCCCCCNc1c2ccccc2nc2cc(C(=O)N3CCN(C)CC3)ccc12	35.5 (≈ 15.8 µg/mL)	23.7 (≈ 10.6 µg/mL)	22.7 (≈ 10.1 µg/mL)	–
CCCCCCCCCCCCCCCCNc1c2ccccc2nc2cc(C(=O)N3CCN(C)CC3)ccc12	11.6 (≈ 6.31 µg/mL)	9.06 (≈ 4.94 µg/mL)	6.23 (≈ 3.39 µg/mL)	–
CCCCCCCCCCCCNc1c2ccccc2nc2ccccc12	2.88 (≈ 1.04 µg/mL)	2.73 (≈ 0.99 µg/mL)	2.88 (≈ 1.04 µg/mL)	–
CCCCCCCCCCCCCCCNc1c2ccccc2nc2ccccc12	5.69 (≈ 2.3 µg/mL)	3.21 (≈ 1.3 µg/mL)	6.1 (≈ 2.47 µg/mL)	–
CCCCCCNc1c2ccccc2nc2ccccc12	> 100	46.9 (≈ 13.1 µg/mL)	50.6 (≈ 14.1 µg/mL)	–
CCCCNc1c2ccccc2nc2cc(C(=O)N3CCN(C)CC3)ccc12	> 100	> 100	> 100	–
CCCCCCCCCCNc1c2ccccc2nc2cc(C(=O)N3CCN(C)CC3)ccc12	12 (≈ 5.51 µg/mL)	10.7 (≈ 4.95 µg/mL)	12.2 (≈ 5.6 µg/mL)	inactive
CCCCCCCCCCCCNc1c2ccccc2nc2cc(C(=O)N3CCN(C)CC3)ccc12	4.8 (≈ 2.35 µg/mL)	5.87 (≈ 2.87 µg/mL)	6.28 (≈ 3.07 µg/mL)	–
CCCCCNc1c2ccccc2nc2ccccc12	> 100	> 100	> 100	–
CCCCCCCCCCNc1c2ccccc2nc2ccccc12	2.61 (≈ 0.873 µg/mL)	3.29 (≈ 1.1 µg/mL)	2.19 (≈ 0.733 µg/mL)	inactive
CCCCNc1c2ccccc2nc2ccccc12	> 100	> 100	> 100	–
CCCCCCCNc1c2ccccc2nc2ccccc12	27.5 (≈ 8.05 µg/mL)	22.9 (≈ 6.68 µg/mL)	24.5 (≈ 7.16 µg/mL)	–
CCCCCCCCCCCCCNc1c2ccccc2nc2ccccc12	2.61 (≈ 0.983 µg/mL)	2.8 (≈ 1.05 µg/mL)	3.04 (≈ 1.14 µg/mL)	–
CCCCCCNc1c2ccccc2nc2cc(C(=O)N3CCN(C)CC3)ccc12	> 100	> 100	> 100	–
